Assay results published in US12295919B2, “Methods of treatment and prevention using 4-deoxy-L-erythro-5-hexoseulose uronic acid” (MIE UNIVERSITY, priority 2022, dated 2025).

Assays:
[1] = system: DAF-16; experiment: Expression and activation (nuclear localization) of DAF-16; type: in vivo, C. elegans; details: 72 hours at 20° C.; for nuclear localization rate of DAF-16: TJ356 strain (Control 2.2%); for intermediate localization rate of DAF-16: TJ356 strain (Control 24.4%)
Excerpt: The FOXO gene daf-16 is one of the components of the insulin/IGF-1 signaling pathway that controls many biological processes such as lifespan, metabolism, and stress response. When DAF-16 is localized in the nucleus, it activates the transcription of numerous genes involved in the regulation of stress tolerance promotion and pathogen protection. Therefore, the involvement of DEH in the activation of daf-16 was examined using the C. elegans TJ356 strain.
The TJ356 strain (zls356 [daf-16p::daf-16a/b::GFP+rol-6 (su1006)]) is a nematode, in which a fluorescent protein GFP has been inserted into the daf-16 promoter, and nuclear translocation by daf-16 gene activation can be observed by fluorescence of the GFP.
Age-synchronized TJ356 strain was cultured using mNGM medium at 20° C. for 72 hours. As evaluation groups (samples), positive control (group heat-treated at 37° C. for 30 minutes after 72-hour culture), control (DEH−), 25 mM DEH and 50 mM DEH were used. E. coli OP50-1 was used as nematode food.
After culturing the TJ356 strain, 15 nematodes in each group were observed under a microscope to confirm the presence or absence of nuclear localization of the DAF-16 protein (GFP fluorescence) (n=60).
Each data is shown as mean±standard error. […] Thus, DEH increased the nuclear localization ratio of DAF-16 as compared to the Control.

[2] = system: blood-brain barrier in vitro reconstitution system model (MBT-24H); experiment: BBB permeability using cynomolgus monkey-type BBB kit (MBT-24H); type: in vitro ADME
Experimental: The permeability of DEH was evaluated using a commercially available BBB kit (blood-brain barrier in vitro reconstitution system model (MBT-24H: PharmaCo-Cell Company, Ltd.)). The kit uses cynomolgus monkey-derived cells as endothelial cells. The permeability of DEH was evaluated using this model.
The reconstituted cynomolgus monkey BBB model has a structure closer to that of human BBB as compared to that of the kit in <Test 2>, so it was considered to be a better model for evaluating whether DEH permeates the human BBB.
After the test, the DEH concentration on the brain parenchyma side was obtained, and the DEH permeability was calculated.

[3] = system: PC-12 cells; experiment: Neurite outgrowth activity using PC-12 cells; type: cell-based, rat
Experimental: Next, the characteristics of DEH were investigated using PC-12 cells. PC-12 cells are cells that were isolated from rat adrenal medullary pheochromocytoma and established as a strain. Nerve growth factor (NGF) is not needed for survival of PC-12 cells, but proliferation is arrested, nerve fibers elongate, and sympathetic ganglion neuron-like properties develop by using NGF. Owing to these properties, PC-12 cells have been used as a model for neural differentiation.
PC-12 cells were cultured and divided into 8 subgroups: no addition (Control), DEH addition (10, 50, 100 μM), NGF addition, NGF addition+DEH addition (10, 50, 100 μM), and elongation of neurite formation was observed. ImageJ software was used to measure neurite length. FIGS. 5A-5C show photographs of cells observed under a microscope; in FIG. 6 the neurite length (μm) of each subgroup is shown. Each data is shown as mean±standard error of triplicate tests. Statistical analysis was performed using the t-test, and a significance level of less than 5% (p<0.05) was considered significant.
NGF addition+DEH addition (50, 60, 70, 80, 90, 100 μM) was divided into 6 subgroups, and the elongation and number of neurites were observed and are shown in FIGS. 7 and 8. Each data is shown as mean±standard error of triplicate tests.

[4] = system: blood-brain barrier in vitro reconstitution system model (RBT-24H); experiment: BBB permeability using rat-type BBB kit (RBT-24H); type: in vitro ADME, Wistar rat
Experimental: Next, DEH permeability was evaluated using a commercially available BBB kit (blood-brain barrier in vitro reconstitution system model (RBT-24H: PharmaCo-Cell Company Ltd.)). This kit uses endothelial cells, pericytes and astrocytes of Wistar rat origin. The above-mentioned SIM measurement of LC/MS was used in the detection and quantification of DEH. A 1000 μg/mL DEH solution was added to the blood vessel side, and after 30 minutes, culture medium on the brain parenchyma side was collected. Then, the DEH concentration in the collected culture medium was measured.
A summary of data, which examined permeability subgroups that migrate into the brain for various compounds, are shown in Table 3.

[5] = system: C. elegans strain HA759; experiment: Inhibitory effect on neuronal death in PolyQ disease model; type: in vivo; details: 120 hours after start of culturing
Excerpt: The effect of DEH on neuronal death of the C. elegans strain HA759, which is a PolyQ disease model, was also investigated. HA759 strain (rtIs11 [osm-10p:: GFP+osm−10p: HtnQ150+dpy−20 (+)]) is a C. elegans strain which expresses Htn-Q150 (human huntingtin) and the fluorescent protein GFP downstream of the osm-10 gene when it receives a signal from ASH neurons. In accordance with the duration of the culture time, HA759 causes death of ASH neurons due to progressive neurodegeneration owing to accumulation of PolyQ.
Age-synchronized HA759 strain was cultured using mNGM medium. Control (DEH−), 25 mM DEH and 50 mM DEH were used as evaluation groups (samples). E. coli OP50-1 was used as nematode food.
Ten nematodes each were observed under a microscope immediately after the start of culture of the HA759 strain and after 24, 48, 72, and 120 hours to confirm whether nerve cells were alive or dead (n=30).
Each data is shown as mean±standard error. […] Thus, DEH inhibited, in a dose-dependent manner, PolyQ-induced neuronal death in the HA759 strain. Because DEH suppresses (reduces) PolyQ aggregation and neuronal cell death, DEH can treat and/or prevent symptoms of PolyQ disease, such as involuntary movement and dementia.

[6] = system: human iPS cell-derived intestinal epithelial cells; experiment: Membrane permeability using human iPS cell-derived intestinal epithelial monolayer; type: in vitro ADME
Experimental: The permeability of DEH through membrane was confirmed using human iPS cells. […] Therefore, results closer to the human body can be obtained using iPS cell-derived intestinal epithelial cells as compared to those using the Caco-2 cell model test.
Using a CO2 incubator (37° C., 5% CO2), human iPS cell-derived intestinal epithelial cells were cultured for 13 to 20 days to prepare a monolayer.
The membrane permeability of the human iPS cell-derived intestinal epithelial monolayer membrane was evaluated by the method described above in <Test 1> using an electrical resistance system (voltohmmeter) sold under the trademark MILLICELL™ ESR-2. Monolayer films, in which the TEER value was more […], were used in the test.
Permeability (absorption) of substances, which were added to the AP side, to the BL side, or permeability (excretion) of substances, which were added to the BL side, to the AP side was evaluated. The above-mentioned SIM measurement of LC/MS was used in the detection and quantification of DEH.

[7] = system: Caco-2 cell monolayer; experiment: Membrane permeability using Caco-2 cell monolayer; type: in vitro ADME, human
Experimental: When Caco-2 cells (human colon cancer-derived cell line) are cultured in a monolayer on a porous membrane filter, they differentiate into intestinal epithelium-like cells. Owing to the differentiation, they express brush borders and tight junctions similar to columnar epithelial cells of the small intestine, as well as metabolic enzymes and transporters present in the human small intestine. Therefore, the Caco-2 cell monolayer is widely used as a model to predict absorption from the intestinal tract.
Using the Caco-2 cell monolayer, the membrane permeability of DEH was confirmed.
Next, using the model apparatuses shown in FIGS. 2A-2B, the electrical resistance value (transepithelial electrical resistance (TEER) value) using an electrical resistance system (voltohmmeter) sold under the trademark MILLICELL™ ESR-2 (FIG. 2A) and permeability using Lucifer Yellow (FIG. 2B) were measured to confirm that a single layer film was formed. The single layer films, in which the TEER value was more than 300 Ω·cm2 and the permeability of Lucifer yellow was 0.3% to 2%, were used in the test.
Permeability (absorption) of substances, which were added to the apical (AP: apical, luminal) side, to the basolateral (BL) side, or permeability (excretion) of substances, which were added to the BL side, to the AP side was evaluated.
An ER value of less than 2 means absorption from the intestinal tract, and an ER value of 2 or more means excretion from the intestinal tract.

[8] = cynomolgus monkey BBB kit, mean ± s.e.
[9] = human iPS cell-derived intestinal epithelial monolayer, mean ± s.e.

O=C[C@@H](O)[C@@H](O)CC(=O)C(=O)O [DEH, 4-deoxy-L-erythro-5-hexoseulose uronic acid]
nuclear localization rate of DAF-16 ([1]; 25 mM DEH): 40.0%
intermediate localization rate of DAF-16 ([1]; 25 mM DEH): 35.6%
nuclear localization rate of DAF-16 ([1]; 50 mM DEH): 51.1%
intermediate localization rate of DAF-16 ([1]; 50 mM DEH): 31.1%
Efflux ratio (ER) (B-A/A-B) ([2]; cynomolgus monkey BBB kit): 0.766
Papp Blood side (A) to Brain side (B) [2, 8]: 2.88 ± 0.24 ×10^−6 cm/s
Papp Brain side (B) to Blood side (A) [2, 8]: 2.20 ± 0.55 ×10^−6 cm/s
Permeability category ([2]; monkey BBB kit, Papp compared with Table 3): low (2~10)
neurite outgrowth, DEH alone ([3]; DEH 10, 50, 100 μM without NGF): did not induce neurite outgrowth
optimum concentration (maximum neurite elongation and number) ([3]; NGF + DEH 50-100 μM): 70 µM
promotion of the function of NGF (neurite length) ([3]; NGF addition + DEH addition, p<0.05 vs NGF): significantly (p<0.05) promote the function of NGF
Papp (DEH permeability, blood vessel side to brain parenchyma side) ([4]; 1000 μg/mL DEH, 30 minutes): 14.62±6.86 ×10^−6 cm/s
Permeability category ([4]; Papp compared with Table 3): good (10~20)
neuronal death suppressed (decreased) as compared to the Control ([5]; 25 mM DEH): 20.3%
neuronal death suppressed (decreased) as compared to the Control ([5]; 50 mM DEH): 46.4%
Efflux ratio (ER) (B-A/A-B) ([6]; human iPS cell-derived intestinal epithelial monolayer): 0.907
Papp AP to BL [6, 9]: 8.78 ± 1.49 ×10^−6 cm/s
Papp BL to AP [6, 9]: 7.97 ± 1.26 ×10^−6 cm/s
Absorption category ([6]; iPS-derived monolayer Papp compared with Table 2): moderate
Absorption category ([7]; Caco-2 Papp compared with Table 2): moderate
Papp AP to BL ([7]; Caco-2 monolayer, absorption direction, mean ± s.e.): 5.13 ± 0.22 ×10^−6 cm/s
Papp BL to AP ([7]; Caco-2 monolayer, excretion direction, mean ± s.e.): 2.78 ± 0.12 ×10^−6 cm/s
ER (B→A/A→B) ([7]; Caco-2 monolayer, ER less than 2 means absorption from the intestinal tract): 0.542
